Measured values reported in patent publication US20210244029A1, “ANTIMICROBIAL COMPOSITIONS” (Aseptic Health, LLC, priority 2019, published 2021).

Test system: Pseudomonas aeruginosa ATCC 27853
Test: Minimal inhibitory concentration (MIC) by serial 1:2 dilutions
Format: cell-based
Conditions: MIC = greatest dilution at which 100% of a starting culture of 1 × 10^6 bacteria are killed

Substance: Sodium Chlorite [0.5% Sodium Chlorite]
- MIC against Pseudomonas aeruginosa ATCC 27853: ⅛
